Measurements reported in ChEMBL document CHEMBL4043166, “Triazole tethered isatin-coumarin based molecular hybrids as novel antitubulin agents: Design, synthesis, biological investigation and docking studies” (Bioorg Med Chem Lett, 2017).
Activity calls are given as the source filed them. No cut-off for these calls is given here.

Columns and labels:
PC-3 = experiment: Cytotoxicity against human PC3 cells assessed as growth inhibition at 50 uM after 48 hrs by SRB assay relative to control; type: functional; settings: PC-3, 48 h, read-out: GI
HCT-116 [1] = experiment: Cytotoxicity against human HCT116 cells assessed as growth inhibition at 50 uM after 48 hrs by SRB assay relative to control; type: functional; settings: HCT-116, 48 h, read-out: GI
COLO 205 [2] = experiment: Cytotoxicity against human COLO205 cells assessed as growth inhibition at 50 uM after 48 hrs by SRB assay relative to control; type: functional; settings: COLO 205, 48 h, read-out: GI
THP-1 [3] = experiment: Cytotoxicity against human THP1 cells assessed as growth inhibition at 50 uM after 48 hrs by SRB assay relative to control; type: functional; settings: THP-1, 48 h, read-out: GI
HCT-116 [4] = experiment: Cytotoxicity against human HCT116 cells assessed as cell growth inhibition after 48 hrs by SRB assay; type: functional, cell-based; settings: HCT-116, 48 h
THP-1 [5] = experiment: Cytotoxicity against human THP1 cells assessed as cell growth inhibition after 48 hrs by SRB assay; type: functional, cell-based; settings: THP-1, 48 h
COLO 205 [6] = experiment: Cytotoxicity against human COLO205 cells assessed as cell growth inhibition after 48 hrs by SRB assay; type: functional, cell-based; settings: COLO 205, 48 h
[7] = Inhibition of tubulin (unknown origin) polymerization; parameters: species or system Homo sapiens
Homo sapiens [8] = species: Homo sapiens; experiment: Inhibition of tubulin polymerization in human THP1 cells assessed as disrupted microtubule formation at 5 uM after 48 hrs by confocal microscopic analysis; type: cell-based
Homo sapiens [9] = species: Homo sapiens; experiment: Inhibition of tubulin polymerization in human THP1 cells assessed as disrupted microtubule formation at 1 uM after 48 hrs by confocal microscopic analysis; type: cell-based

SMILES	inhibition of growth at 50 µM (PC-3)	inhibition of growth at 50 µM (HCT-116 [1])	inhibition of growth at 50 µM (COLO 205 [2])	inhibition of growth at 50 µM (THP-1 [3])	IC50 (HCT-116 [4])	IC50 (THP-1 [5])	IC50 (COLO 205 [6])	IC50 [7]	inhibition (Homo sapiens [8])	inhibition (Homo sapiens [9])
O=C1C(=O)N(CCCCn2cc(COc3cc(=O)oc4ccccc34)nn2)c2ccc([N+](=O)[O-])cc21	8%	53%	45%	55%						
O=C1C(=O)N(CCn2cc(COc3cc(=O)oc4ccccc34)nn2)c2ccc(I)cc21	17%	70%	62%	74%	8.99 µM	7.01 µM	12 µM			
O=C1C(=O)N(CCn2cc(COc3cc(=O)oc4ccccc34)nn2)c2ccccc21	28%	87%	80%	98%	3.04 µM	0.73 µM	3.45 µM	1.06 µM	Active	
COc1ccc2c(c1)C(=O)C(=O)N2CCCCn1cc(COc2cc(=O)oc3ccccc23)nn1		48%	41%	52%						
O=C1C(=O)N(CCCCn2cc(COc3cc(=O)oc4ccccc34)nn2)c2ccc(I)cc21	10%	57%	50%	59%						
COc1ccc2c(c1)C(=O)C(=O)N2CCn1cc(COc2cc(=O)oc3ccccc23)nn1	14%	65%	53%	68%						
O=C1C(=O)N(CCn2cc(COc3cc(=O)oc4ccccc34)nn2)c2ccc(Cl)cc21	22%	70%	76%	87%	5.77 µM	5.47 µM	8.87 µM			
O=C1C(=O)N(CCCn2cc(COc3cc(=O)oc4ccccc34)nn2)c2ccc([N+](=O)[O-])cc21	12%	60%	52%	60%						
O=C1C(=O)N(CCCCn2cc(COc3cc(=O)oc4ccccc34)nn2)c2ccc(Br)cc21	13%	59%	56%	63%						
O=C1C(=O)N(CCCCCn2cc(COc3cc(=O)oc4ccccc34)nn2)c2ccc(F)cc21		59%	56%	63%						
O=C1C(=O)N(CCCCn2cc(COc3cc(=O)oc4ccccc34)nn2)c2ccccc21	19%	72%	68%	85%	8.05 µM	5.12 µM	7.67 µM			
O=C1C(=O)N(CCCCCn2cc(COc3cc(=O)oc4ccccc34)nn2)c2ccc(Cl)cc21		52%	48%	59%						
O=C1C(=O)N(CCn2cc(COc3cc(=O)oc4ccccc34)nn2)c2ccc(F)cc21	26%	80%	76%	92%	5.41 µM	1.99 µM	6.67 µM	3.55 µM		
O=C1C(=O)N(CCCn2cc(COc3cc(=O)oc4ccccc34)nn2)c2ccc(Cl)cc21	18%	68%	67%	78%	9.66 µM	6.99 µM	10.7 µM			
COc1ccc2c(c1)C(=O)C(=O)N2CCCn1cc(COc2cc(=O)oc3ccccc23)nn1	9%	52%	48%	56%						
O=C1C(=O)N(CCCCCn2cc(COc3cc(=O)oc4ccccc34)nn2)c2ccccc21	9%	65%	62%	69%						
O=C1C(=O)N(CCCCn2cc(COc3cc(=O)oc4ccccc34)nn2)c2ccc(Cl)cc21	14%	62%	60%	71%	12.8 µM	7.56 µM	13.1 µM			
O=C1C(=O)N(CCCCn2cc(COc3cc(=O)oc4ccccc34)nn2)c2ccc(F)cc21	17%	67%	64%	77%	10.4 µM	7.1 µM	9.11 µM			
O=C1C(=O)N(CCCn2cc(COc3cc(=O)oc4ccccc34)nn2)c2ccccc21	25%	79%	75%	93%	5.18 µM	5.03 µM	5.71 µM	6.32 µM		
O=C1C(=O)N(CCn2cc(COc3cc(=O)oc4ccccc34)nn2)c2ccc([N+](=O)[O-])cc21	15%	68%	59%	71%	9.54 µM	8.57 µM	13 µM			
COc1ccc2c(c1)C(=O)C(=O)N2CCCCCn1cc(COc2cc(=O)oc3ccccc23)nn1		25%	19%	30%						
O=C1C(=O)N(CCCCCn2cc(COc3cc(=O)oc4ccccc34)nn2)c2ccc(I)cc21		36%	30%	45%						
O=C1C(=O)N(CCCCCn2cc(COc3cc(=O)oc4ccccc34)nn2)c2ccc(Br)cc21		43%	39%	52%						
O=C1C(=O)N(CCCn2cc(COc3cc(=O)oc4ccccc34)nn2)c2ccc(I)cc21	14%	65%	56%	67%						
O=C1C(=O)N(CCCn2cc(COc3cc(=O)oc4ccccc34)nn2)c2ccc(F)cc21	20%	75%	69%	86%	7.26 µM	5.76 µM	8.88 µM			
O=C1C(=O)N(CCCCCn2cc(COc3cc(=O)oc4ccccc34)nn2)c2ccc([N+](=O)[O-])cc21		29%	23%	37%						
O=C1C(=O)N(CCCn2cc(COc3cc(=O)oc4ccccc34)nn2)c2ccc(Br)cc21	14%	66%	61%	72%	11.5 µM	7.14 µM	13 µM			
O=C1C(=O)N(CCn2cc(COc3cc(=O)oc4ccccc34)nn2)c2ccc(Br)cc21	21%	72%	65%	80%	8.09 µM	6.43 µM	10.5 µM			
CC(=O)O[C@H]1C(=O)[C@@]2(C)[C@H]([C@H](OC(=O)c3ccccc3)[C@]3(O)C[C@H](OC(=O)[C@H](O)[C@@H](NC(=O)c4ccccc4)c4ccccc4)C(C)=C1C3(C)C)[C@]1(OC(C)=O)CO[C@@H]1C[C@@H]2O										Active
